Experimental findings from patent US20240336657A1, “G-ALPHA-S PEPTIDE INHIBITORS AND USES THEREOF” (The Regents of the University of California, priority 2021, published 2024) are described below.

Data set [1] concerns the target Gαs S275L (Homo sapiens, UniProt P63092, S275L). In words: Adenylyl cyclase activation assay in the presence of Gβ1/γ2. It counts as biochemical. Also noted: made in house; host or cells: Escherichia coli BL21(DE3) (Gαs, VC1, IIC2); Sf9 insect cells (Gβ1/Gγ2). The following applies: 6.25 μM of GN13. The procedure:
GN13 inhibition of Gαs proteins at various concentrations (FIG. 18E).
WT Gαs and S275L mutant at a concentration of 8.5 mg/mL (about 190 μM) in 20 mM HEPES 8.0, 150 mM NaCl, 5 mM MgCl2, 1 mM EDTA-Na 8.0 were diluted to a series of concentrations (4 μM, 1.33 μM, 0.44 μM, 0.15 μM, 49.4 nM, 16.5 nM, 5.5 nM, 0 nM) in dilution buffer (1×PBS 7.4, 0.1% BSA, 1 mM EDTA-Na 8.0, 2 mM DTT, 0.1 mM MgCl2) plus 1 mM GppNHp. After incubation at room temperature for 1 hour to allow nucleotide exchange, 2.5 μL of each sample was then mixed with 1 μL of MgCl2 stock (20 mM MgCl2, 1× PBS 7.4, 0.1% BSA) in an OptiPlate-384, White Opaque 384-well Microplate. 2 μL of adenylyl cyclase/Gβγ stock (2 μM VC1, 2 nM IIC2, 150 μM FSK, 1× PBS 7.4, 0.1% BSA, 10 μM Gβ1/γ2(C68S)) was added, followed by addition of 2.5 μL 25 μM GN13 stock in 1× PBS 7.4, 0.1% BSA. […] The cAMP concentrations were measured by the LANCE Ultra cAMP kit. […]
A cAMP standard curve was generated in the same plate using the 50 μM cAMP standard in the kit. […] 10 μL of each diluted sample was mixed with 5 μL of 4× Eu-cAMP tracer and 5 μL of 4× ULight-anti-cAMP in a white, opaque Optiplate-384 microplate, incubated for 1 hour at room temperature, and the time-resolved fluorescence resonance energy transfer (TR-FRET) signals were read on a Spark 20M plate reader. […]

For data set [2], the target named is GppNHp-bound Gαs (Homo sapiens, UniProt P63092). The data set can be described thus: Bio-layer interferometry (BLI) binding kinetics. Also noted: hexahistidine (N, cleaved yes); made in house; host or cells: Escherichia coli BL21(DE3). The procedure:
(§1) BLI experiments were performed using an OctetRED384 instrument from ForteBio. All experiments were performed at 25° C. using BLI buffer (10 mM HEPES pH 7.4, 150 mM NaCl, 1 mM MgCl2, 0.05% Tween-20, 0.1% DMSO, 0.2 mM GppNHp or GDP). Cyclic peptides were diluted to a series of concentrations in BLI buffer plus 10 μM Biotin. Assays were conducted in Greiner 384well, black, flat bottom polypropylene plates containing the protein solutions, BLI buffer plus 10 μM Biotin for dissociation, and serial dilutions of cyclic peptides to be tested.
(§2) Biotinylated proteins were immobilized on Streptavidin biosensors by dipping sensors into plate wells containing protein solutions at a concentration of 100-150 nM. Protein loading is around 2-3 nm. Sensors loaded with proteins were moved and dipped into wells with BLI buffer plus 10 μM Biotin to block unlabeled Streptavidin. Association-dissociation cycles of compounds were started by moving and dipping sensors to cyclic peptides dilutions and BLI buffer plus 10 μM Biotin wells alternatively. Association and dissociation times were carefully determined to ensure full association and dissociation.
(§3) Raw kinetic data collected were processed with the Data Analysis software provided by the manufacturer using single reference subtraction in which buffer-only reference was subtracted (For GN13 analysis). Because GD20 analogs have a low level of background binding, we used a double reference subtraction (buffer-only reference and non-protein-loading reference) method to calculate their kinetics values. The resulting data were analyzed based on a 1:1 binding model from which kon and koff values were obtained and then Kd values were calculated.

Data set [3] has as its target T1, GTP- and GppNHp-bound Gαs Q227L mutant (Homo sapiens, UniProt P63092, Q227L).
T1 construct: made in house; host or cells: Escherichia coli BL21(DE3)
The data set can be described thus: Adenylyl cyclase activation assay with oncogenic mutant. It counts as biochemical. The text has this:
Gαs is one of the most frequently mutated G proteins in human cancer. Hotspot mutations in Gαs (Q227) disrupt its GTPase activity, thereby locking Gαs in the GTP-bound active conformation (Zachary et al., 1990).

For data set [4], the target named is T2, GDP-bound Gαi1 (Homo sapiens, UniProt P63096).
T2 construct: hexahistidine (N, cleaved yes); made in house; host or cells: Escherichia coli BL21(DE3)
In words: Bio-layer interferometry (BLI) binding. The following applies: highest concentration tested. The procedure:
as §1, §2, §3

Data set [5] has as its target T3, GppNHp-bound Gαi1 (Homo sapiens, UniProt P63096).
T3 construct: hexahistidine (N, cleaved yes); made in house; host or cells: Escherichia coli BL21(DE3)
The data set can be described thus: Bio-layer interferometry (BLI) binding. The conditions noted are these: highest concentration tested. The procedure: as §1, §2, §3

Data set [6] is described as follows: Chemical stability assay in DMEM with 10% FBS. The following applies: bovine, 37° C., values represent 95% confidence intervals. It counts as in vitro ADME. The procedure: These assays were conducted by Pharmaron Beijing CO., Ltd. Cyclic peptides working solutions were prepared at 10 μM in DMEM with 10% FBS (Avantor, Cat #76294-180) or human plasma (Pooled, Male & Female, BioIVT, Cat #HMN666664). The assays were performed in duplicate. Vials were incubated at 37° C. at 60 rpm in a water bath and taken at designated time points including 0, 480, 1080 and 1440 min. For each time point, the initiation of the reaction was staggered so all the time points were terminated with cold acetonitrile containing internal standards (IS, 100 nM alprazolam, 200 nM labetalol, 200 nM Imipramine and 2 μM ketoplofen) at the same time. Samples were vortexed then centrifuged at 4° C. to remove proteins. The supernatants from centrifugation were diluted by ultra-pure H2O and used for LC-MS/MS analysis. All calculations were carried out using GraphPad Prism. Remaining percentages of parent compounds at each time point were estimated by determining the peak area ratios from extractedion chromatograms.

Positions of bridges follow the written chain, without caps; N, C: chain ends. Non-standard residues stand in square brackets, D forms with d. Residues, ends and D or L forms follow the SMILES beside them.

Chain of Gαs S275L (P63092 7-380 isoform P63092-2 S261L limits assumed): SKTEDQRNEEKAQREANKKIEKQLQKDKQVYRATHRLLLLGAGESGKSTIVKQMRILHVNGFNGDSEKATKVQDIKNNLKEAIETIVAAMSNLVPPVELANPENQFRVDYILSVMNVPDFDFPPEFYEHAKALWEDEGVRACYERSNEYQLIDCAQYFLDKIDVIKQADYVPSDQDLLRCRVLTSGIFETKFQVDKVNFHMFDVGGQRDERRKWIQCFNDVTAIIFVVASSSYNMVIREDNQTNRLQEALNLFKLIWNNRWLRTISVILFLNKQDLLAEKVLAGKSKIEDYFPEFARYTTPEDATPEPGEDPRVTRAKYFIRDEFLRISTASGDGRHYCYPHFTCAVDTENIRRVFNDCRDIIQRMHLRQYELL
T1 sequence (P63092 7-380 isoform P63092-2 Q213L limits assumed): as the sequence (P63092 7-380 isoform P63092-2 S261L limits assumed) above, with Q207L, L255S counted along it
T2 sequence (P63096 with tags, fused parts or gaps): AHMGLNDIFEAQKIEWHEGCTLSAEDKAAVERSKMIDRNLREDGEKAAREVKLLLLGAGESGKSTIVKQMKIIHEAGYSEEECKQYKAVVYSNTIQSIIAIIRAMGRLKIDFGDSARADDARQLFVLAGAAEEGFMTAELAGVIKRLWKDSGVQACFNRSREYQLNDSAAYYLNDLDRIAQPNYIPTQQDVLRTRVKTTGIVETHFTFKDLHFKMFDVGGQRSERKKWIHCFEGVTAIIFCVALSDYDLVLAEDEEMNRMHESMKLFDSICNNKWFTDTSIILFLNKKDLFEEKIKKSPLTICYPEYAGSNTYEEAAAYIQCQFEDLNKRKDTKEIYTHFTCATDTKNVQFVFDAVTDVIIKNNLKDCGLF
T3 sequence (P63096 with tags, fused parts or gaps): as above

For `CC[C@H](C)[C@@H]1NC(=O)[C@H](C)NC(=O)[C@H](Cc2ccc(O)cc2)NC(=O)[C@H](C(C)C)NC(=O)[C@H](CO)NC(=O)[C@H](CCC(=O)O)NC(=O)[C@H](Cc2ccccc2)NC(=O)[C@@H](Cc2ccc(O)cc2)NC(=O)CSC[C@@H](C(=O)NCC(N)=O)NC(=O)[C@H](CC(C)C)NC(=O)[C@H]([C@@H](C)O)NC(=O)CNC(=O)[C@H](Cc2c[nH]c3ccccc23)NC1=O` [GN13] ({CH2CO}-[dY]FESVYAIWGTLCG-NH2; thioether N-13), in data set [1], the “inhibition of adenylyl cyclase activation by Gαs S275L” value was “resistant to GN13 inhibition”. In data set [2] (GppNHp/Gαs), the koff turned out to be 0.0513 s⁻¹ and the kon came to 271000 M⁻¹ s⁻¹. For the same molecule, the affinity in data set [2] (immobilized GppNHp-bound Gαs), expressed as Kd, was 190 ± 20 nM. For the same molecule, the “inhibition of Gαs Q227L mutant in the adenylyl cyclase activation assay” value in data set [3] is “inhibited”. For the same molecule, the “binding to GDP-bound Gαi1” value in data set [4] is listed as “no detectable binding”. In addition, the “binding to GppNHp-bound Gαi1” value in data set [5] is “no detectable binding”.

On to `CC[C@H](C)[C@@H]1NC(=O)[C@H](CC(C)C)NC(=O)[C@@H](Cc2ccc(O)cc2)NC(=O)CSC[C@@H](C(=O)NCC(N)=O)NC(=O)[C@@H]2CCCN2C(=O)[C@H](CC(C)C)NC(=O)[C@H](CC(N)=O)NC(=O)[C@H](CC(C)C)NC(=O)[C@H](C)NC(=O)[C@H](Cc2c[nH]c3ccccc23)NC(=O)[C@H](CCC(N)=O)NC(=O)[C@H](CCCNC(=N)N)NC(=O)[C@H](Cc2ccccc2)NC(=O)[C@H]([C@@H](C)O)NC1=O` [GD20-F10L] ({CH2CO}-[dY]LITFRQWALNLPCG-NH2; thioether N-14), for which the half-life at 10 μM in data set [6] fell in the range of 37.4 to 50.3 h.
